Experimental data taken from US11802131B2, “Glutarimides for medical treatment” (C4 Therapeutics, Inc., priority 2017, dated 2023).

Target: hCereblon(M1-L442)_hDDB1(M1-H1140) (Homo sapiens (Human), UniProt Q96SW2)
Assay: Fluorescence direct binding protocol (tryptophan fluorescence titration)
Conditions: 20° C., excited at 280 nm, recorded at 340 nm, assay buffer 50 mM Hepes 7.4 200 mM NaCl; read-out: Fluorescence h-Cereblon_DDB1 Mean Kd_EQ
Procedure: Fluorescence Direct Binding Protocol
Determination of the affinities of compounds to protein containing one or more tryptophan is measurable by monitoring the fluorescence emission in direct mode. The measurements depending on the protein available amounts are performed either manually in a cuvette on ISS-PC1 photon counting spectrofluorometer or automatically in well plates on a fluorescence plate reader device. Fluorescence titrations are performed at 20° C. in the chosen binding assay buffer by using a defined constant protein concentration against ligand concentration variations. Small aliquots of known ligand concentration solubilized in DMSO were added and the fluorescence, excited at 280 nm, was recorded at 340 nm. The fluorescence intensity was corrected for protein dilution and for the filter effect (Birdsall et al.^72).
1) Optimization of measurement parameters to minimize protein consumption and to minimize the dilution effect and the DMSO content
2) Titration measurements of the protein against ligand by at least 12 titration steps to obtain a good s-curve fit
3) Repeat the same titration measurements with the ligand alone to enable correction
4) Check the stability of the protein once by titration against DMSO alone
5) Determination of the molar extinction coefficients of the ligand at 280 and 340 nm with help of an UV-spectrophotometer
6) Use Excel template for the correction of the measured raw data
7) Use GraphPad Prism software for the quadratic binding fit and the KD evaluation.

Sequence of hCereblon(M1-L442)_hDDB1(M1-H1140) (Q96SW2 whole entry): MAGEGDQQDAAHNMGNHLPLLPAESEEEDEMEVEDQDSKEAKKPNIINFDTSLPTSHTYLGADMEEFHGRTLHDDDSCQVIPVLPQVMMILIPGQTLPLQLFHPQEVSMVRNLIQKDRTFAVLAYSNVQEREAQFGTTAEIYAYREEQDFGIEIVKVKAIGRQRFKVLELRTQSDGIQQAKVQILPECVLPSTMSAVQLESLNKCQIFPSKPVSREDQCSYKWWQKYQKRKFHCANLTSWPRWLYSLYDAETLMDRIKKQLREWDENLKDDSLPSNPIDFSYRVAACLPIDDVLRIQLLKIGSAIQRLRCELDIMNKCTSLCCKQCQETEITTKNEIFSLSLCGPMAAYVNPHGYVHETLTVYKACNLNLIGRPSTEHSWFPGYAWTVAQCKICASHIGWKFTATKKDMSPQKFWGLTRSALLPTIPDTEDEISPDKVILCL
Sequence of hCereblon(M1-L442)_hDDB1(M1-H1140) (Q16531 whole entry partner): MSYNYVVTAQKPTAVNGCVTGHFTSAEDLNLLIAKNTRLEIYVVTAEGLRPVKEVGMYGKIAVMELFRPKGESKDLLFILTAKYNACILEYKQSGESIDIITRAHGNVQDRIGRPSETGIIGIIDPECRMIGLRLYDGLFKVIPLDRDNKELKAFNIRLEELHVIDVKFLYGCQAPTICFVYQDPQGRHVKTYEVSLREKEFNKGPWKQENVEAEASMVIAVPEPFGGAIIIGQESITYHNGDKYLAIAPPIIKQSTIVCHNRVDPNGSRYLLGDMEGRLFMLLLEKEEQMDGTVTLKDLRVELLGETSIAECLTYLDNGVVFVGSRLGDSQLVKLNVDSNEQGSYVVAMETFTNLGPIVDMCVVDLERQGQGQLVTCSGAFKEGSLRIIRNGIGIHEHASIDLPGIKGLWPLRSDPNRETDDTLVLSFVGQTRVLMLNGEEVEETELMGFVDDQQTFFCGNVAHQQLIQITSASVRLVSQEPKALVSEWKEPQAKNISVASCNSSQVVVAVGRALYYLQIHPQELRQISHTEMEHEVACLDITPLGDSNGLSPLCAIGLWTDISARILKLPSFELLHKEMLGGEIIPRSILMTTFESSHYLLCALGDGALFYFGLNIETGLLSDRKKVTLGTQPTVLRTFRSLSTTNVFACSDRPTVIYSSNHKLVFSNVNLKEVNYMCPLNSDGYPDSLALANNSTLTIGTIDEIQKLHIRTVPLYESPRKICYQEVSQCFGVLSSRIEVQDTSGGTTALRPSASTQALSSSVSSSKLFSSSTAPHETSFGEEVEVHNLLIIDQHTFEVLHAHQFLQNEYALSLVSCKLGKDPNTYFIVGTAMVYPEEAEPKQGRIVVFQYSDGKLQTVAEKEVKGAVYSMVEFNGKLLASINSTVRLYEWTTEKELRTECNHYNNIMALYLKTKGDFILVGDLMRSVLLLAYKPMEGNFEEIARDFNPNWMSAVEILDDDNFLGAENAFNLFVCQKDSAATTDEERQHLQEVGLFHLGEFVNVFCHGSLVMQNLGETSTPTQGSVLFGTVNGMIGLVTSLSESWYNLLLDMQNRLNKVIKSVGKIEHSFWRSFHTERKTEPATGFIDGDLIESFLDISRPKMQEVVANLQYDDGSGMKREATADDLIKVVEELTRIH

Row | Kd [nM] | Structure (SMILES)
1 | 3 | CC(=O)Nc1cccc(CC(=O)N[C@@H]2CCC(=O)NC2=O)c1 [Example 67, (R)-2-(3-Acetamidophenyl)-N-(2,6-dioxopiperidin-3-yl)acetamide]
2 | 3 | O=C1CC[C@@H](NC(=O)c2ncc3ccccn23)C(=O)N1 [Example 51, (R)-N-(2,6-Dioxopiperidin-3-yl)imidazo[1,5-a]pyridine-3-carboxamide]
3 | 27 | O=C1CC[C@H](NC(=O)Cc2ccccc2)C(=O)N1 [Example 1, (S)-N-(2,6-Dioxo-3-piperidinyl)benzeneacetamide]
4 | 967 | O=C1CC[C@H](NC(=O)Cc2cccnc2)C(=O)N1 [Example 61, (S)-N-(2,6-Dioxopiperidin-3-yl)-2-(pyridin-3-yl)acetamide]
5 | 655 | O=C1CCC(NC(=O)C2CCc3ccccc32)C(=O)N1 (racemic) [Example 2, N-(2,6-Dioxopiperidin-3-yl)-2,3-dihydro-1H-indene-1-carboxamide]
6 | 5 | CN1CCC(C(=O)N[C@H]2CCC(=O)NC2=O)c2ccccc21 (stereo partly drawn) [Example 38, N-[(3S)-2,6-Dioxo-3-piperidyl]-1-methyl-3,4-dihydro-2H-quinoline-4-carboxamide]
7 | 23 | O=C1CC[C@H](NC(=O)c2csc3ccccc23)C(=O)N1 [Example 25, (S)-N-(2,6-Dioxopiperidin-3-yl)benzo[b]thiophene-3-carboxamide]
8 | 14 | O=C1CC[C@H](NC(=O)c2c[nH]c3ccccc23)C(=O)N1 [Example 17, (S)-N-(2,6-Dioxopiperidin-3-yl)-1H-indole-3-carboxamide]
9 | 14 | O=C1CC[C@@H](NC(=O)c2c[nH]c3ccccc23)C(=O)N1 [Example 18, (R)-N-(2,6-Dioxopiperidin-3-yl)-1H-indole-3-carboxamide]
10 | 641 | O=C1CC[C@@H](NC(=O)N2CCCc3cccnc32)C(=O)N1 [Example 64, (R)-N-(2,6-Dioxopiperidin-3-yl)-3,4-dihydro-1,8-naphthyridine-1(2H)-carboxamide]
11 | 29 | CN(C(=O)N1CCc2cccnc21)C1CCC(=O)NC1=O (stereo not shown) [Example 62, N-(2,6-Dioxopiperidin-3-yl)-N-methyl-2,3-dihydro-1H-pyrrolo[2,3-b]pyridine-1-carboxamide]
12 | 2 | O=C1CCC(NC(=O)c2coc3ccccc23)C(=O)N1 (stereo not shown) [Example 12, N-(2,6-Dioxopiperidin-3-yl)benzofuran-3-carboxamide]
13 | 18 | COC(=O)c1ccc2c(C(=O)N[C@H]3CCC(=O)NC3=O)c[nH]c2c1 [Example 42, Methyl (S)-3-((2,6-dioxopiperidin-3-yl)carbamoyl)-1H-indole-6-carboxylate]
14 | 5 | CN1C(=O)CCC(NC(=O)[C@H]2CCCc3ccccc32)C1=O (single isomer, unassigned) [Example 74]
15 | 86 | CC(=O)Nc1ccc(CC(=O)N[C@@H]2CCC(=O)NC2=O)cc1 [Example 66, (R)-2-(4-Acetamidophenyl)-N-(2,6-dioxopiperidin-3-yl)acetamide]
16 | 1 | O=C1CC[C@H](NC(=O)c2cnc3ccccn23)C(=O)N1 [Example 54, (S)-N-(2,6-Dioxopiperidin-3-yl)imidazo[1,2-a]pyridine-3-carboxamide]
17 | 30 | CN(C(=O)N1CCc2ccccc21)[C@@H]1CCC(=O)NC1=O [Example 60, (R)-N-(2,6-Dioxopiperidin-3-yl)-N-methylindoline-1-carboxamide]
18 | 6 | O=C1CC[C@H](NC(=O)[C@@H]2CCNc3ccccc32)C(=O)N1 [Example 33, (4R)-N-[(3S)-2,6-Dioxopiperidin-3-yl]-1,2,3,4-tetrahydroquinoline-4-carboxamide]
19 | 9 | O=C1CC[C@@H](NC(=O)c2csc3ccccc23)C(=O)N1 [Example 24, (R)-N-(2,6-Dioxopiperidin-3-yl)benzo[b]thiophene-3-carboxamide]
20 | 30 | Cn1cc(C(=O)NC2CCC(=O)NC2=O)c2ccccc21 (stereo not shown) [Example 8, N-(2,6-Dioxopiperidin-3-yl)-1-methyl-1H-indole-3-carboxamide]

Row | Kd [nM] | Structure (SMILES)
21 | < 1 | O=C1CC[C@H](NC(=O)[C@H]2CCNc3ccccc32)C(=O)N1 [Example 32, (4S)-N-[(3S)-2,6-Dioxopiperidin-3-yl]-1,2,3,4-tetrahydroquinoline-4-carboxamide]
22 | 8 | Cc1sc2c(c1C)C(c1ccc(Cl)cc1)=N[C@@H](CC(=O)NCCOCCOCCOCC(=O)N1CC[C@@H](C(=O)N[C@H]3CCC(=O)NC3=O)c3ccccc31)c1nnc(C)n1-2 [Example C, (4R)-1-[2-[2-[2-[2-[[2-[(9S)-7-(4-Chlorophenyl)-4,5,13-trimethyl-3-thia-1,8,11,12-tetrazatricyclo[8.3.0.02,6]trideca-2(6),4,7,10,12-pentaen-9-yl]acetyl]amino]ethoxy]ethoxy]ethoxy]acetyl]-N-[(3S)-2,6-dioxo-3-piperidyl]-3,4-dihydro-2H-quinoline-4-carboxamide]
23 | < 1 | O=C1CC[C@@H](NC(=O)c2n[nH]c3ccccc23)C(=O)N1 [Example 49, (R)-N-(2,6-Dioxopiperidin-3-yl)-1H-indazole-3-carboxamide]
24 | 6 | O=C1CC[C@@H](NC(=O)[C@H]2CCCc3ccccc32)C(=O)N1 [Example 26, (S)-N-((R)-2,6-Dioxopiperidin-3-yl)-1,2,3,4-tetrahydronaphthalene-1-carboxamide]
25 | 197 | O=C1CCC(NC(=O)C2CCc3ccccc32)C(=O)N1 (single isomer, unassigned; (+)) [Example 5, (+)-N-(2,6-Dioxopiperidin-3-yl)-2,3-dihydro-1H-indene-1-carboxamide]
26 | 2 | O=C1CC[C@@H](NC(=O)c2ccc3ccccn23)C(=O)N1 [Example 53, (R)-N-(2,6-Dioxopiperidin-3-yl)indolizine-3-carboxamide]
27 | 4 | O=C1CCC(NC(=O)[C@@H]2CCCc3ccccc32)C(=O)N1 (stereo partly drawn) [Example 14, (1R)-N-(2,6-Dioxopiperidin-3-yl)-1,2,3,4-tetrahydronaphthalene-1-carboxamide]
28 | 7 | O=C1CC[C@@H](NC(=O)c2cnn3cccnc23)C(=O)N1 [Example 57, (R)-N-(2,6-Dioxopiperidin-3-yl)pyrazolo[1,5-a]pyrimidine-3-carboxamide]
29 | 68 | O=C1CCC(NC(=O)C2CCc3ccccc32)C(=O)N1 (single isomer, unassigned; (-)) [Example 4, (−)-N-(2,6-Dioxopiperidin-3-yl)-2,3-dihydro-1H-indene-1-carboxamide]
30 | < 1 | O=C1CC[C@H](NC(=O)C2CCNc3ccccc32)C(=O)N1 (stereo partly drawn) [Example 37, N-[(3S)-2,6-Dioxo-3-piperidyl]-1,2,3,4-tetrahydroquinoline-4-carboxamide]
31 | 2 | O=C1CCC(NC(=O)N2CCc3ccccc32)C(=O)N1 (stereo not shown) [Example 9, N-(2,6-Dioxopiperidin-3-yl)indoline-1-carboxamide]
32 | 19 | O=C1CC[C@@H](NC(=O)N2CCCc3ccccc32)C(=O)N1 [Example 35, (R)-N-(2,6-Dioxopiperidin-3-yl)-3,4-dihydroquinoline-1(2H)-carboxamide]
33 | 4 | O=C1CC[C@H](NC(=O)N2CCCc3ccccc32)C(=O)N1 [Example 28, (S)-N-(2,6-Dioxopiperidin-3-yl)-3,4-dihydroquinoline-1(2H)-carboxamide]
34 | < 1 | O=C1CC[C@@H](NC(=O)c2cnn3ccccc23)C(=O)N1 [Example 48, (R)-N-(2,6-Dioxopiperidin-3-yl)pyrazolo[1,5-a]pyridine-3-carboxamide]
35 | 10 | Cc1sc2c(c1C)C(c1ccc(Cl)cc1)=N[C@@H](CC(=O)NCCCCCC(=O)N1CC[C@H](C(=O)N[C@H]3CCC(=O)NC3=O)c3ccccc31)c1nnc(C)n1-2 [Example A, (4S)-1-[6-[[2-[(9S)-7-(4-Chlorophenyl)-4,5,13-trimethyl-3-thia-1,8,11,12-tetrazatricyclo[8.3.0.02,6]trideca-2(6),4,7,10,12-pentaen-9-yl]acetyl]amino]hexanoyl]-N-[(3S)-2,6-dioxo-3-piperidyl]-3,4-dihydro-2H-quinoline-4-carboxamide]
36 | 57 | CCCN1Cc2ccccc2C1C(=O)NC1CCC(=O)NC1=O (stereo not shown) [Example 3, N-(2,6-Dioxopiperidin-3-yl)-2-propylisoindoline-1-carboxamide]
37 | 8 | O=C1CC[C@H](NC(=O)c2cnn3cccnc23)C(=O)N1 [Example 56, (S)-N-(2,6-Dioxopiperidin-3-yl)pyrazolo[1,5-a]pyrimidine-3-carboxamide]
38 | 4 | O=C1CC[C@H](NC(=O)N2CCCc3cccnc32)C(=O)N1 [Example 30, (S)-N-(2,6-Dioxopiperidin-3-yl)-3,4-dihydro-1,8-naphthyridine-1 (2H)-carboxamide]
39 | 3 | O=C1CC[C@@H](NC(=O)Cc2ccc3c(c2)CC(=O)N3)C(=O)N1 [Example 70, (R)-N-(2,6-Dioxopiperidin-3-yl)-2-(2-oxoindolin-5-yl)acetamide]
40 | 8 | O=C1CCC(NC(=O)c2csc3ccccc23)C(=O)N1 (stereo not shown) [Example 13, N-(2,6-Dioxopiperidin-3-yl)benzo[b]thiophene-3-carboxamide]
